9 molecules from PubChem BioAssay (NCI) can be followed below.

Some test systems named below: CCRF-CEM leukemia; HCT-116 colon; HOP-92 NSCLC; IGROV1 ovarian; MOLT-4 leukemia; NCI-H226 lung; NCI-H23 lung; SNB-19 CNS; SR leukemia; UO-31 renal.
What all share (test): growth of human tumour cells (NCI), 48 h

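Grown in 96-well plates, cells were treated for 48 hours with each compound at five concentrations. Insufficient inhibition: endpoint recorded as highest concentration tested. At the GI50, growth is halved. TGI denotes the concentration required for complete inhibition of growth.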 Bounds are passed on as bounds.

Take `CCOC(=O)C(=O)Nc1c(C)cccc1C(C)C`: the TGI in the assay with CCRF-CEM leukemia, in the assay with HCT-116 colon, with HOP-92 NSCLC, with IGROV1 ovarian, in the assay with MOLT-4 leukemia and in the assay on NCI-H226 lung was over 100 µM throughout. For the same molecule, the TGI in the assay with NCI-H23 lung, in the assay on SNB-19 CNS, with SR leukemia and in the assay with UO-31 renal was over 100 µM in each case.
Regarding `COc1ccc(C(=O)CC(=O)C(=O)Nc2ccc(C)c(C)c2)cc1`, the TGI is over 74.5 µM in the assay on CCRF-CEM leukemia; over 64.4 µM with HCT-116 colon; over 100 µM in the assay with HOP-92 NSCLC; over 100 µM in the assay on IGROV1 ovarian; over 100 µM in the assay on MOLT-4 leukemia; over 100 µM with NCI-H226 lung. Also, the TGI in the assay with NCI-H23 lung, in the assay with SNB-19 CNS, with SR leukemia and in the assay on UO-31 renal was over 100 µM each time.
Regarding `COC1=CC(c2ccc[nH]2)=N/C1=C\c1[nH]c(C)c(C(C)=O)c1C`, the GI50 in the assay with CCRF-CEM leukemia was 0.0183 µM; with HCT-116 colon it was 0.0576 µM; with HOP-92 NSCLC, 0.671 µM; in the assay with IGROV1 ovarian, 0.696 µM; with MOLT-4 leukemia, 0.032 µM; with NCI-H226 lung it was 2.6 µM. Moreover, the figures for the GI50 in the assay on NCI-H23 lung, in the assay with SNB-19 CNS and with UO-31 renal were 5.12 µM, 24.2 µM and 0.226 µM, respectively. The TGI is over 100 µM with CCRF-CEM leukemia; over 100 µM in the assay with HCT-116 colon; 5.13 µM in the assay with HOP-92 NSCLC; over 100 µM in the assay on IGROV1 ovarian; over 100 µM with MOLT-4 leukemia; over 82.1 µM with NCI-H226 lung. Besides, the TGI in the assay on NCI-H23 lung is over 100 µM; in the assay on SNB-19 CNS it was over 100 µM; with SR leukemia, 0.379 µM; in the assay with UO-31 renal, 0.641 µM.
Regarding `Cc1ccc(-c2nc(N)c(C#N)c3c2CCOc2c-3ccc3ccccc23)cc1`, the GI50 in the assay with CCRF-CEM leukemia was 0.224 µM; in the assay on HCT-116 colon, 0.21 µM; in the assay with HOP-92 NSCLC, 0.334 µM; in the assay on IGROV1 ovarian it was 0.359 µM; with MOLT-4 leukemia, 0.42 µM; in the assay with NCI-H226 lung, over 100 µM. For the same molecule, the GI50 in the assay on NCI-H23 lung is 0.521 µM; in the assay on SNB-19 CNS, 2.08 µM; with SR leukemia it was 0.0882 µM; with UO-31 renal it was 4.14 µM. Besides, the TGI with CCRF-CEM leukemia is 1.36 µM; with HOP-92 NSCLC, 7.44 µM; with IGROV1 ovarian, over 100 µM; with MOLT-4 leukemia it was over 100 µM; in the assay on NCI-H226 lung, over 100 µM; in the assay on NCI-H23 lung, 66.7 µM. The TGI in the assay with SNB-19 CNS, in the assay on SR leukemia and with UO-31 renal was over 100 µM each time.
As for `CCN(CC)CCCC(Cc1ccccc1)Nc1c2ccc(Cl)cc2nc2ccc(OC)cc12` (stereo not given), the GI50 with CCRF-CEM leukemia is 2 µM; in the assay with HCT-116 colon, 1.95 µM; in the assay with HOP-92 NSCLC, 2.1 µM; in the assay with IGROV1 ovarian, 3.21 µM; in the assay on MOLT-4 leukemia, 1.91 µM; in the assay on NCI-H226 lung, 3.63 µM. Further, the GI50 is 2.9 µM with NCI-H23 lung, 2.56 µM in the assay on SNB-19 CNS, 1.43 µM in the assay with SR leukemia and 1.35 µM in the assay on UO-31 renal. Moreover, the TGI in the assay with CCRF-CEM leukemia stood at 6.51 µM; in the assay with HCT-116 colon it was 10.7 µM; in the assay with HOP-92 NSCLC, 4.9 µM; in the assay with IGROV1 ovarian it was 13.2 µM; in the assay on MOLT-4 leukemia, 5.7 µM; in the assay with NCI-H226 lung, 14.5 µM. For the same molecule, the TGI in the assay with NCI-H23 lung amounted to 8.47 µM; with SNB-19 CNS, 7.17 µM; with SR leukemia, 4.25 µM; in the assay with UO-31 renal, 2.69 µM.
On to `COc1ccc(OC)c(/C=C2\COc3ccc(O)c(O)c3C2=O)c1`, for which the GI50 with CCRF-CEM leukemia is 0.679 µM; in the assay on HCT-116 colon, 1.82 µM; in the assay with HOP-92 NSCLC, 2.8 µM; in the assay with IGROV1 ovarian, 2.31 µM; in the assay with MOLT-4 leukemia, 1.97 µM; in the assay with NCI-H226 lung it was 6.76 µM. The GI50 in the assay on NCI-H23 lung was 2.44 µM; with SNB-19 CNS, 3.09 µM; in the assay with SR leukemia, 1.36 µM; in the assay with UO-31 renal it was 1.22 µM. Moreover, the TGI with CCRF-CEM leukemia is 34.4 µM; in the assay with HCT-116 colon it was 4.13 µM; in the assay with HOP-92 NSCLC it was 8.86 µM; with IGROV1 ovarian, 6.68 µM; in the assay with MOLT-4 leukemia it was over 100 µM; in the assay on NCI-H226 lung it was 36.8 µM. The TGI in the assay on NCI-H23 lung is 7.3 µM; in the assay with SNB-19 CNS it was 11.1 µM; with SR leukemia it was over 100 µM; in the assay on UO-31 renal, 2.6 µM.
On to `COc1ccc(-c2nc(N3CCOCC3)c3sc(CN(C)c4ncc(C(=O)NO)cn4)cc3n2)cn1`, for which the GI50 in the assay on CCRF-CEM leukemia is under 0.01 µM; in the assay with HOP-92 NSCLC, 0.0147 µM; with IGROV1 ovarian it was under 0.01 µM; with NCI-H226 lung it was 0.0112 µM; with NCI-H23 lung, 0.0103 µM; in the assay on SNB-19 CNS, under 0.01 µM. Besides, the GI50 in the assay with SR leukemia and with UO-31 renal was under 0.01 µM throughout. Further, the TGI stood at 1.53 µM in the assay on CCRF-CEM leukemia; 0.0508 µM with HOP-92 NSCLC; 0.0439 µM in the assay on IGROV1 ovarian; 1.13 µM with NCI-H226 lung; 0.601 µM in the assay on NCI-H23 lung; 0.0907 µM with SNB-19 CNS. Also, the TGI amounted to 0.234 µM in the assay with SR leukemia and 0.0705 µM in the assay with UO-31 renal.
Regarding `O=C1CC[C@H](c2ccc(O)c3c2C(=O)[C@@H]2O[C@@H]2C3=O)c2cccc(O)c21`, the GI50 in the assay on CCRF-CEM leukemia is 1.05 µM; with HCT-116 colon it was 1.97 µM; with HOP-92 NSCLC it was 2.38 µM; in the assay on MOLT-4 leukemia it was 2.71 µM; in the assay on NCI-H226 lung it was 3.21 µM; in the assay on NCI-H23 lung, 3.31 µM. For the same molecule, the GI50 in the assay on SNB-19 CNS is 10.6 µM; in the assay on SR leukemia, 0.835 µM; in the assay with UO-31 renal, 1.57 µM. Besides, the TGI with CCRF-CEM leukemia worked out at 5.76 µM; in the assay on HCT-116 colon, 3.89 µM; in the assay with HOP-92 NSCLC, 5.12 µM; in the assay with MOLT-4 leukemia, 17.4 µM; with NCI-H226 lung it was 12.4 µM; in the assay with NCI-H23 lung, 20.4 µM. Besides, the TGI was 33.6 µM with SNB-19 CNS, 4.57 µM with SR leukemia and 3.16 µM in the assay with UO-31 renal.
Turning to `COc1cc(Nc2nc3cc(C(F)(F)F)ccc3nc2-c2ccccc2)cc(OC)c1OC`, the TGI in the assay on CCRF-CEM leukemia is over 100 µM; in the assay with HOP-92 NSCLC it was 20.7 µM; in the assay with IGROV1 ovarian it was over 100 µM; in the assay on MOLT-4 leukemia, over 100 µM; in the assay on NCI-H226 lung it was over 100 µM; in the assay with NCI-H23 lung, over 100 µM. Further, the TGI in the assay with SR leukemia and with UO-31 renal was over 100 µM in each case.
